Data set [1] in a line: Biostability half-life, yeast. The format is in vitro ADME. From the text:
(§1) Table III lists the approximate pharmacokinetics of synthetic peptides described in the present invention which solubilize readily, persist in conformationally active secondary structures in vivo, and induce lysis of representative bacteria, yeast and fungi. These determinations derive from optical density readings (O.D.) and rely on spectrophotometric absorbance from known initial concentrations as reference standards. The optimal therapeutic index for dosage and effective antimicrobial inhibition of a particular polypeptide or salt thereof range between 10-100 and follow routinely without elaborate laboratory determinations by those skilled in the art of pharmacokinetics and metabolic pathways using, for instance, various cytochrome and liver enzymes in vivo.

Data set [2] in a line: Biostability half-life, E. coli. Type of data set: in vitro ADME.
Source text: as §1

A short description of data set [3]: Biostability half-life, mammalian. Type of data set: in vitro ADME.
Source text: as §1

The nature of data set [4]: Solubility (optical density readings). The format is physicochemical.
Source text: as §1

Data set [5] deals with Staph aureus(25923). As to the kind of experiment: Minimum inhibitory concentration, broth microdilution in Mueller-Hinton media. Type of data set: cell-based. The note with it: Staph aureus (ATCC 25923), Gram positive. From the text:
(§2) Table III lists the minimum inhibitory concentration (ug/mL) for the various organisms assayed in Mueller-Hinton growth media. Details of the microbiological techniques employed are available to those skilled in the art, for instance from the American Type Tissue Culture Catalog (ATCC, Maryland) or DIFCO Manual, 10th Edition, 1984, pp. 78-80. For instance, a cultured solution of the bacterial strains Escherichia coli (American Tissue Culture Collection, Maryland) ATCC […] and Pseudomonas aeruginosa ATCC 27853 can be tested to model Gram-negative bacteria. Bacteria were grown overnight at 37 C. in Mueller-Hinton broth, reinoculated and incubated at 37 C. to reach the exponential phase of bacterial growth [i.e. a final bacterial suspension cantaining from 100,000 to 500,000 colony-forming units [(CFU)/ml]. In 96 well tissue culture plates, peptides dissolved in distilled water were added to the bacterial suspension at concentrations varying between 1000 to 2 ug/mL derived from serial dilutions, and then incubated overnight at 37 C.

Data set [6] concerns representative bacteria, yeast and fungi. As to the kind of experiment: Antimicrobial action (general statement). Type of data set: cell-based.
Source text: as §2, with “In 96 well tissue culture plates, peptides dissolved in distilled water were added to the bacterial suspension at concentrations varying between 1000 to 2 ug/mL derived from serial dilutions, and then incubated overnight at 37 C.” left out
Table III lists the approximate pharmacokinetics of synthetic peptides described in the present invention which solubilize readily, persist in conformationally active secondary structures in vivo, and induce lysis of representative bacteria, yeast and fungi. These determinations derive from optical density readings (O.D.) and rely on spectrophotometric absorbance from known initial concentrations as reference standards. […]

In data set [7] the test system is Ps. Aruginosa(13883). As to the kind of experiment: Minimum inhibitory concentration, broth microdilution in Mueller-Hinton media. The format is cell-based, Pseudomonas aeruginosa. The note with it: Ps. Aruginosa (ATCC 13883), Gram negative.
Source text: as §2

Data set [8] has as its system E. coli(25922). Described as above. The format is cell-based, Escherichia coli. The settings on record: E. coli (ATCC 25922), Gram negative.
Source text: as §2

The test system of data set [9] is Sac.cerv. Nature of the data set: Minimum inhibitory concentration, broth microdilution. Type of data set: cell-based. The settings on record: Yeast Sac.cerv.
Source text: as §2
In general terms: Broth dilution looks for growth in wells or tubes with falling amounts of substance.

The subject of data set [10] is Pichia. Described as above. Type of data set: cell-based. The settings on record: Yeast Pichia.
Source text: as §2

Peptide text beside a SMILES is read from it.

On to `CC[C@H](C)[C@H](NC(=O)[C@H](CC(C)C)NC(=O)[C@H](CC(N)=O)NC(=O)[C@H](CCCNC(=N)N)NC(=O)[C@H](CC(C)C)NC(=O)[C@H](CCC(=O)O)NC(=O)[C@H](CO)NC(=O)[C@H](CC(C)C)NC(=O)[C@@H](NC(=O)[C@H](CCCNC(=N)N)NC(=O)[C@H](CCCCN)NC(=O)CNC(=O)[C@@H](NC(=O)[C@H](CC(C)C)NC(=O)[C@H](CO)NC(=O)CNC(=O)[C@@H](N)C(C)C)C(C)C)[C@@H](C)CC)C(N)=O` [SEQ. ID 2, VGSLVGKRILSELRNLI] (H-VGSLVGKRILSELRNLI-NH2), for which, in data set [1], the “Biostability Half-life Yeast” value was 20.00 h. The “Biostability Half-life E. coli” value in data set [2] is 10.00 h. Besides, in data set [3], the “Biostability Half-life Mammalian” value worked out at 100.00 h. This compound came in with a Solubility in data set [4] of 16.50 ug/100 g.
Consider “GIGTLLGKKKTKFLKNILKL [SEQ. ID 1, 20-residue antimicrobial peptide, modified from a Bacillus thuringiensis delta-endotoxin fragment]”, for which the “Biostability Half-life Yeast” value in data set [1] amounted to 20.00 h. Moreover, the “Minimum Inhibitory Concentration (MIC)” value came out at 63.00 µg/mL in data set [5]; 32.00 µg/mL in data set [7]; 16.00 µg/mL in [8]; 16.00 µg/mL in data set [9]; 8.00 µg/mL in data set [10]. For the same compound, in [6], the antimicrobial potency entry was “sub-micromolar”. Besides, in data set [2], the “Biostability Half-life E. coli” value came to 10.00 h. In addition, in data set [3], the “Biostability Half-life Mammalian” value was determined as 30.00 h. Besides, the Solubility in data set [4] is 85.09 ug/100 g. Moreover, the “solubility relative to B.t. fragment SEQ. 2” value in [4] (ratio SEQ. 1 / SEQ. 2) stood at 5 times.

The record behind these values is patent US5981698A, “Antimicrobial polypeptides” (CyberChemics, Inc., priority 1997, dated 1999).
